Source: ChEMBL document CHEMBL1133494, “Inhibitors of bacterial tyrosyl tRNA synthetase: synthesis of four stereoisomeric analogues of the natural product SB-219383” (Bioorg Med Chem Lett, 2000)

Key:
[1] = system: Tyrosyl-tRNA synthetase (Staphylococcus aureus); assay: Inhibitory activity of compound against tyrosyl tRNA synthetase from Staphylococcus aureus was determined up to 3 uM; IA means Inactive
[2] = target: T1, Tyrosine--tRNA ligase, cytoplasmic (Homo sapiens) (UniProt P54577); assay: Percentage inhibitory activity of compound against tyrosyl tRNA synthetase from mammalian cells was determined at 3 uM
T1 sequence (whole entry): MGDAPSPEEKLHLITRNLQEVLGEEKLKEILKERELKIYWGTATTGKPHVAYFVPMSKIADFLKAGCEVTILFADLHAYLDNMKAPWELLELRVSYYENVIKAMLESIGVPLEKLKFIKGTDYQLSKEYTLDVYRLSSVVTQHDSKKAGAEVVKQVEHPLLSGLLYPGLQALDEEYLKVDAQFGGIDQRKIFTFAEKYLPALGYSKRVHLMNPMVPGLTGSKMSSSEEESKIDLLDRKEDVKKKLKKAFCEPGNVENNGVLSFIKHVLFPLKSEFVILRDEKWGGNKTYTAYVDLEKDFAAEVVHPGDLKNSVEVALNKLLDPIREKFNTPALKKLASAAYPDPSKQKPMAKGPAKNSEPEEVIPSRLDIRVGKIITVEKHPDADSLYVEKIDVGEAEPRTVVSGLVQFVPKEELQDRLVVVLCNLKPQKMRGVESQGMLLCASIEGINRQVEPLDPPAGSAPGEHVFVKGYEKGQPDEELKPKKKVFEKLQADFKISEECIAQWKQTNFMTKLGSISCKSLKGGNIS

| IC50 [1] | inhibition [2] [%] | Structure (SMILES) |
| --- | --- | --- |
| Not Active | – | N[C@@H](Cc1ccc(O)cc1)C(=O)N[C@H](C(=O)O)[C@@H]1[C@@H](O)[C@H](O)[C@H](O)CN1O |
| – | 11 | N[C@@H](Cc1ccc(O)cc1)C(=O)N[C@H](C(=O)O)[C@H]1[C@H](O)[C@@H](O)[C@@H](O)CN1O |
| Not Active | – | N[C@@H](Cc1ccc(O)cc1)C(=O)N[C@@H](C(=O)O)[C@@H]1[C@@H](O)[C@H](O)[C@H](O)CN1O |
